According to publication PMC8379219 (Nature Communications, 2021):
Several values for one entry are separate records, joined by “and”; a condition that tells them apart may be missing. Equal values may be shown once.

Assays:
SERT WT [1] = biological target: T1, SERT WT (Homo sapiens, UniProt P31645); experiment: [3H]IMI dissociation rate assay (allosteric potency), COS-7 membranes;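 as to all read-outs here: radioligand pre-bound 30 min at room temperature to equilibrium, then dissociation followed over 5–70 min, ended by filtration through GF/B filters, at least three independent experiments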; assay type: binding; set-up: expressed in transfected cells; host or cells: COS-7; settings: for VLZ Allosteric Potency SERT WT, [3H]IMI dissociation (Fig. 2C): ctrl = 1, replicates
SERT WT [2] = biological target: T1, SERT WT; experiment: [3H]5-HT saturation uptake with increasing VLZ concentrations, COS-7 cells;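 as to all read-outs here: transfected cells assayed 2 days post-transfection, 3 min uptake period, accumulated radioactivity counted in cell lysates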; assay type: cell-based; set-up: expressed in transfected cells; host or cells: COS-7; [3H]5-HT uptake (Fig. 2A [3H]5-HT Vmax):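 percent of the 5-HT Vmax measured without VLZ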; settings: for [3H]5-HT uptake (Fig. 2A [3H]5-HT Vmax): replicates

T1 sequence (P31645 whole entry): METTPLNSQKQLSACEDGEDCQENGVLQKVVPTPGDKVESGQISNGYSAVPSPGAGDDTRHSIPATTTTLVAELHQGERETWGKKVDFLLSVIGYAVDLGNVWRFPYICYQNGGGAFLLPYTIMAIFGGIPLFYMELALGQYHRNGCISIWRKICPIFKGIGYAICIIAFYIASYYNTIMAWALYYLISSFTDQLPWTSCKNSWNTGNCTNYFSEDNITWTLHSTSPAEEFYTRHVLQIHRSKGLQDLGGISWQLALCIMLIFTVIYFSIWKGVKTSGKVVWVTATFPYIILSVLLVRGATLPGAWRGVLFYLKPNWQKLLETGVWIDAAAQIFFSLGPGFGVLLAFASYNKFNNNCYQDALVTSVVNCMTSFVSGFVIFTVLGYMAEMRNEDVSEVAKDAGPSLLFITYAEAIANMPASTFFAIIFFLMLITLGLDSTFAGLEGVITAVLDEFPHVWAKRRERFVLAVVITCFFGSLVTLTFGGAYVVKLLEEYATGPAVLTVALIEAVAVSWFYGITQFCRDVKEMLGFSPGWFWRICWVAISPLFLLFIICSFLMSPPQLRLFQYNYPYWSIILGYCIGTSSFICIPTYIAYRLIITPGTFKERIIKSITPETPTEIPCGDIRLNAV

SMILES: N#Cc1ccc2[nH]cc(CCCCN3CCN(c4ccc5oc(C(N)=O)cc5c4)CC3)c2c1 [VLZ, Vilazodone]
- [3H]IMI dissociation (Fig. 2B) (SERT WT [1]; 1.6 nM, time 30 min): 88.3693
- [3H]IMI dissociation (Fig. 2B) (SERT WT [1]; 1.6 nM, time 50 min): 82.8483
- [3H]IMI dissociation (Fig. 2B) (SERT WT [1]; 1.6 nM, time 70 min): 74.8875
- [3H]IMI dissociation (Fig. 2B) (SERT WT [1]; 5.0 nM, time 5 min): 97.5709
- [3H]IMI dissociation (Fig. 2B) (SERT WT [1]; 5.0 nM, time 10 min): 97.4425
- [3H]IMI dissociation (Fig. 2B) (SERT WT [1]; 5.0 nM, time 20 min): 93.3593
- [3H]IMI dissociation (Fig. 2B) (SERT WT [1]; 5.0 nM, time 30 min): 90.4506
- [3H]IMI dissociation (Fig. 2B) (SERT WT [1]; 5.0 nM, time 50 min): 84.3631
- [3H]IMI dissociation (Fig. 2B) (SERT WT [1]; 5.0 nM, time 70 min): 76.3943
- [3H]IMI dissociation (Fig. 2B) (SERT WT [1]; 14 nM, time 5 min): 98.3663
- [3H]IMI dissociation (Fig. 2B) (SERT WT [1]; 14 nM, time 10 min): 97.4617
- [3H]IMI dissociation (Fig. 2B) (SERT WT [1]; 14 nM, time 15 min): 95.8874
- [3H]IMI dissociation (Fig. 2B) (SERT WT [1]; 14 nM, time 20 min): 96.0081
- [3H]IMI dissociation (Fig. 2B) (SERT WT [1]; 14 nM, time 30 min): 92.2894
- [3H]IMI dissociation (Fig. 2B) (SERT WT [1]; 14 nM, time 50 min): 89.4282
- [3H]IMI dissociation (Fig. 2B) (SERT WT [1]; 14 nM, time 70 min): 81.9514
- [3H]IMI dissociation (Fig. 2B) (SERT WT [1]; 41 nM, time 5 min): 97.9849
- [3H]IMI dissociation (Fig. 2B) (SERT WT [1]; 41 nM, time 10 min): 98.4954
- [3H]IMI dissociation (Fig. 2B) (SERT WT [1]; 41 nM, time 15 min): 97.2116
- [3H]IMI dissociation (Fig. 2B) (SERT WT [1]; 41 nM, time 20 min): 97.5521
- [3H]IMI dissociation (Fig. 2B) (SERT WT [1]; 41 nM, time 30 min): 96.6684
- [3H]IMI dissociation (Fig. 2B) (SERT WT [1]; 41 nM, time 50 min): 94.4925
- [3H]IMI dissociation (Fig. 2B) (SERT WT [1]; 41 nM, time 70 min): 87.7012
- VLZ Allosteric Potency SERT WT, [3H]IMI dissociation (Fig. 2C) (SERT WT [1]; Log[VLZ] (M) -4): 0
- VLZ Allosteric Potency SERT WT, [3H]IMI dissociation (Fig. 2C) (SERT WT [1]; Log[VLZ] (M) -5.9101): 0.1027 and 0.08972 and 0.1662 and 0.1172 and 0.01147
- VLZ Allosteric Potency SERT WT, [3H]IMI dissociation (Fig. 2C) (SERT WT [1]; Log[VLZ] (M) -6.38561): 0.0801 and 0.09017 and 0.06116 and 0.2108 and 0.1226 and 0.07783 and 0.1748 and 0.1023
- VLZ Allosteric Potency SERT WT, [3H]IMI dissociation (Fig. 2C) (SERT WT [1]; Log[VLZ] (M) -6.86273): 0.1665 and 0.2014 and 0.09755 and 0.4073 and 0.1925 and 0.0796 and 0.2088 and 0.1328
- VLZ Allosteric Potency SERT WT, [3H]IMI dissociation (Fig. 2C) (SERT WT [1]; Log[VLZ] (M) -7.33985): 0.3329 and 0.2727 and 0.2322 and 0.5054 and 0.3314 and 0.3281 and 0.2598 and 0.3035 and 0.2526
- VLZ Allosteric Potency SERT WT, [3H]IMI dissociation (Fig. 2C) (SERT WT [1]; Log[VLZ] (M) -7.81697): 0.6247 and 0.4843 and 0.4623 and 0.5542 and 0.4673 and 0.4013 and 0.468 and 0.4244
- VLZ Allosteric Potency SERT WT, [3H]IMI dissociation (Fig. 2C) (SERT WT [1]; Log[VLZ] (M) -8.29409): 0.894 and 0.6671 and 0.6226 and 0.8075 and 0.7294 and 0.5156 and 0.7279 and 0.5418
- VLZ Allosteric Potency SERT WT, [3H]IMI dissociation (Fig. 2C) (SERT WT [1]; Log[VLZ] (M) -8.77121): 0.9289 and 0.7744 and 0.7519 and 0.85 and 0.8487 and 0.773 and 0.7182 and 0.7591
- [3H]5-HT uptake (Fig. 2A [3H]5-HT Vmax) (SERT WT [2]; 1.0 nM VLZ, 5-HT 1000 nM): 49.0825 and 65.883 and 64.0163
- [3H]5-HT uptake (Fig. 2A [3H]5-HT Vmax) (SERT WT [2]; 1.0 nM VLZ, 5-HT 2000 nM): 61.0408 and 86.9627 and 62.7549
- [3H]5-HT uptake (Fig. 2A [3H]5-HT Vmax) (SERT WT [2]; 1.0 nM VLZ, 5-HT 3000 nM): 66.441 and 97.8152 and 78.0502
- [3H]5-HT uptake (Fig. 2A [3H]5-HT Vmax) (SERT WT [2]; 3.0 nM VLZ, 5-HT 1000 nM): 33.7847 and 41.1475 and 28.2118 and 48.6535
- [3H]5-HT uptake (Fig. 2A [3H]5-HT Vmax) (SERT WT [2]; 3.0 nM VLZ, 5-HT 2000 nM): 43.7743 and 51.4964 and 36.278 and 58.2653
- [3H]5-HT uptake (Fig. 2A [3H]5-HT Vmax) (SERT WT [2]; 3.0 nM VLZ, 5-HT 3000 nM): 47.6029 and 61.8621 and 42.6502 and 66.7813
- [3H]5-HT uptake (Fig. 2A [3H]5-HT Vmax) (SERT WT [2]; 3.8 nM VLZ, 5-HT 1000 nM): 22.8758 and 41.0675 and 31.8704 and 40.9164 and 22.5758 and 39.1234
- [3H]5-HT uptake (Fig. 2A [3H]5-HT Vmax) (SERT WT [2]; 3.8 nM VLZ, 5-HT 2000 nM): 38.6315 and 55.6912 and 34.4535 and 55.6242 and 30.4203 and 47.6358
- [3H]5-HT uptake (Fig. 2A [3H]5-HT Vmax) (SERT WT [2]; 3.8 nM VLZ, 5-HT 3000 nM): 63.6765 and 45.9269 and 61.6646 and 33.1434 and 58.1985
- [3H]5-HT uptake (Fig. 2A [3H]5-HT Vmax) (SERT WT [2]; 6.0 nM VLZ, 5-HT 1000 nM): 12.5099 and 7.037 and 21.7589
- [3H]5-HT uptake (Fig. 2A [3H]5-HT Vmax) (SERT WT [2]; 6.0 nM VLZ, 5-HT 2000 nM): 13.9352 and 18.4437
- [3H]5-HT uptake (Fig. 2A [3H]5-HT Vmax) (SERT WT [2]; 6.0 nM VLZ, 5-HT 3000 nM): 16.6938 and 13.3777
- [3H]5-HT uptake (Fig. 2A [3H]5-HT Vmax) (SERT WT [2]; 7.5 nM VLZ, 5-HT 1000 nM): 14.9918 and 20.7791 and 1.755 and 5.881 and 9.304
- [3H]5-HT uptake (Fig. 2A [3H]5-HT Vmax) (SERT WT [2]; 7.5 nM VLZ, 5-HT 2000 nM): 20.8007 and 29.8638 and 2.631 and 9.704
- [3H]5-HT uptake (Fig. 2A [3H]5-HT Vmax) (SERT WT [2]; 7.5 nM VLZ, 5-HT 3000 nM): 31.591 and 10.2272 and 13.2803
- [3H]5-HT uptake (Fig. 2A [3H]5-HT Vmax) (SERT WT [2]; 10 nM VLZ, 5-HT 1000 nM): 11.1656 and 2.348 and 1.555 and 4.995
- [3H]5-HT uptake (Fig. 2A [3H]5-HT Vmax) (SERT WT [2]; 10 nM VLZ, 5-HT 2000 nM): 17.8898 and 3.041 and 8.84 and 7.029 and 9.965
- [3H]5-HT uptake (Fig. 2A [3H]5-HT Vmax) (SERT WT [2]; 10 nM VLZ, 5-HT 3000 nM): 19.1566 and 3.978 and 3.024
- [3H]5-HT uptake (Fig. 2A [3H]5-HT Vmax) (SERT WT [2]; 15 nM VLZ, 5-HT 1000 nM): 1.871 and 1.697 and 1.083 and 0.6379 and 0.8401 and 1.916
- [3H]5-HT uptake (Fig. 2A [3H]5-HT Vmax) (SERT WT [2]; 15 nM VLZ, 5-HT 2000 nM): 3.689 and 3.04 and 2.083 and 1.212 and 1.597 and 2.763
- Mode of inhibition of [3H]5-HT transport (SERT WT [2]; VLZ 0–15 nM): non-competitive
- 5-HT VMAX (in % of no VLZ) (SERT WT [2]; VLZ 1 nM): 93 ± 13%
- 5-HT VMAX (in % of no VLZ) (SERT WT [2]; VLZ 3.0 nM): 66 ± 10%
- 5-HT VMAX (in % of no VLZ) (SERT WT [2]; VLZ 3.8 nM): 72 ± 17%
- 5-HT VMAX (in % of no VLZ) (SERT WT [2]; VLZ 6.0 nM): 21 ± 6%
- 5-HT VMAX (in % of no VLZ) (SERT WT [2]; VLZ 7.5 nM): 18 ± 8%
- 5-HT VMAX (in % of no VLZ) (SERT WT [2]; VLZ 10 nM): 11 ± 5%
- 5-HT VMAX (in % of no VLZ) (SERT WT [2]; VLZ 15 nM): 3.4 ± 1.2%
- 5-HT VMAX (in % of no VLZ) (SERT WT [2]; VLZ […]): 98 ± 10%
